From US20090062302A1, “Jak2 Tyrosine Kinase Inhibition” (priority 2006, published 2009) come the findings set out here.

The experiment has as its system patients with JAK2 positive refractory MPD. In words: Clinical trial in patients with JAK2 positive refractory MPD. The experiment is classed as in vivo, human. The note with it: one trial, eight patients.

As to `Cc1cc(Nc2cc(N3CCN(C)CC3)nc(Sc3ccc(NC(=O)C4CC4)cc3)n2)n[nH]1` [Compound I, Cyclopropane carboxylic acid {4-[4-(4-methyl-piperazin-1-yl)-6-(5-methyl-2H-pyrazol-3-ylamino)-pyrimidin-2-ylsulphanyl]-phenyl}-amide], the “patients who achieved an objective response” value was “six out of eight”.
